In patent US6545033B1, “Fused 1-(2,6-dichloro-4-trifluoromethylphenyl)-pyrazoles, the synthesis thereof and the use thereof as pesticides” (3-Dimensional Pharmaceuticals, Inc., priority 1999, dated 2003):

Experiments:
[1] = test system: houseflies (Musca domestica); experiment: In vivo housefly contact assay; conditions: contact in coated glass test tube, about 24 hours; mM = concentration of the DMSO solution, about 1 μL applied
Procedure: This example describes an in vivo assay to screen compounds for their ability to kill houseflies via contact. Newly emerged houseflies (Musca domestica, available from Rincon-Vitova Insectaries, Inc., Ventura, Calif.) were sedated with carbon dioxide gas, collected in 50 mL polypropylene conical tubes containing filter paper saturated with 10% (w/w) sucrose in water, and allowed to feed at room temperature for about 2-4 hours. Test compounds were dissolved as in dimethylsulfoxide (DMSO) at concentrations ranging from about 0.05 mM to about 100 mM. About 1 μL of dissolved test compound and about 100 μL of isopropanol were dispensed into the bottom of a 9 mL screw-top glass test tube. Positive control test tubes were prepared in the same manner except that no test compounds were dissolved in the DMSO. Each test tube was rolled to coat the sides with the chemical solution, and allowed to air dry 24-48 hours. About 20 houseflies were sedated by refrigeration at 0-4° C. and transferred to each test tube. Each test tube was sealed with organdy cloth secured by an open top screw cap and laid horizontally in the dark. After about 24 hours, the healthy, moribund, and dead houseflies in each test tube were counted. The percentage of dead houseflies in each test tube was then calculated using the formula M=100(D−(FC/100))/(F−(FC/100)), in which M is the percentage of dead houseflies due to the addition of the test compound, D is the number of dead houseflies in the test tube, F is the total number of houseflies in the test tube, and C is the percentage of dead houseflies in the control test tubes.

[2] = test system: cat fleas (Ctenocephalides felis), CO Fleas; experiment: In vivo cat flea contact assay, CO fleas; conditions: contact with treated filter disk in vial, about 24-30 hours, mM = concentration of the DMSO solution, about 1 μL applied; for LC50: Ctenocephalides felis, topical, read-out: LD50 (mM), CO Fleas
Procedure: (§1) This example describes an in vivo assay to screen compounds for their ability to kill cat fleas via contact.
(§2) Test compounds were dissolved in dimethylsulfoxide (DMSO) at concentrations ranging from about 0.05 mM to about 100 mM. About 1 μL of dissolved test compound was dispensed onto a 6 mm (diameter) GF/C filter disk (filter material available from Whatman Inc., Clifton, N.J.) in the bottom of a 4 mL screw-top glass vial and allowed to air dry 24-48 hours. Positive control vials were prepared in the same manner except that no test compounds were dissolved in the DMSO. About 20 newly emerged cat fleas (Ctenocephalides felis) were sedated by refrigeration at 0-4° C. and transferred to each vial. Each vial was sealed with a thin, perforated Teflon™ septum secured by an open top screw cap and held vertically in the dark. After about 24-30 hours, the healthy, moribund, and dead cat fleas in each vial were counted. The percentage of dead cat fleas in each vial was then calculated using the formula M=100(D−(FC/100))/(F−(FC/100)), in which M is the percentage of dead cat fleas due to the addition of the test compound, D is the number of dead cat fleas in the test vial, F is the total number of cat fleas in the test vial, and C is the percentage of dead cat fleas in the control vials.

[3] = test system: cat fleas (Ctenocephalides felis), NC Fleas; experiment: In vivo cat flea contact assay, NC fleas; conditions: contact with treated filter disk in vial, about 24-30 hours; mM = concentration of the DMSO solution, about 1 μL applied
Procedure: as §1, §2

Housefly GABA receptors = biological target: T1, Housefly GABA receptors (Musca domestica, UniProt Q75NA5); experiment: In vitro assay of binding to housefly GABA receptors (3H-EBOB displacement, housefly neuronal membranes); conditions: for Compounds with the most activity (housefly 3H-EBOB binding): housefly neuronal membranes
T1 sequence (Q75NA5 30-576): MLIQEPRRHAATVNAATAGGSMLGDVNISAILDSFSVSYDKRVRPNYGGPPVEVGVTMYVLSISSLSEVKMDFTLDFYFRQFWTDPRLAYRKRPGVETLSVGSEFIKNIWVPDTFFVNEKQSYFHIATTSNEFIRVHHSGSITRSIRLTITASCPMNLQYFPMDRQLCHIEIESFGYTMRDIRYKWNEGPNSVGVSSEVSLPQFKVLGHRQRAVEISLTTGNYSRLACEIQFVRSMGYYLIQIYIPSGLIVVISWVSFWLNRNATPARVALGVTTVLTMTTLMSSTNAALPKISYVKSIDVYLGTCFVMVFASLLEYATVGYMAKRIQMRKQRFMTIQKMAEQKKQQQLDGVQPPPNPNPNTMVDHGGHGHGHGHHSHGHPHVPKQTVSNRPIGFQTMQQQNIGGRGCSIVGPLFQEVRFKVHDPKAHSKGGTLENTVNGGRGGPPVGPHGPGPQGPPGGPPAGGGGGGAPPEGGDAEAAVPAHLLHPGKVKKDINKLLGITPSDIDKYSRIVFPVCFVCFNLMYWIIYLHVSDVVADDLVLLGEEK
Procedure: Newly emerged houseflies (Musca domestica, available from Rincon-Vitova Insectaries, Inc., Ventura, Calif.) were sedated with carbon dioxide gas, collected in 50 mL polypropylene conical tubes, and immediately frozen by submersion in liquid nitrogen. Unless specified, all of the following work was performed at 0-4° C. After removal from liquid nitrogen, the tubes of frozen houseflies were shaken vigorously by hand to decapitate the houseflies. […] Contaminating wings were removed by holding a vacuum nozzle approximately 4 cm above the heads, and contaminating legs were separated from the heads by passage through a #15 mesh screen. All remaining debris were removed from the pool of heads using forceps. The purified heads were collected in 50 mL polypropylene conical tubes and stored in liquid nitrogen until processed further.
About 13 g of purified housefly heads were suspended in about 65 mL of 10% sucrose buffer (10% sucrose (w/w) in 10 mM Tris, pH 7.5). The heads were homogenized for about 1 minute, using a Tissumizer™ homogenizer equipped with a SDT-100EN probe (available from Tekmar-Dohrmann, Cincinnati, Ohio) running at 70% of its maximum speed. The extract was further homogenized by about 5 passes through a 40 mL Dounce tissue grinder. The extract was then centrifuged at about 500×g for about 5 minutes to pellet large debris. The supernatant was collected; the pellet was washed with an additional 65 mL of 10% sucrose buffer and centrifuged at 500×g for about 5 minutes. The second supernatant was collected and combined with the first supernatant, and the pool was filtered through a 100μ CellMicroSieve™ mesh to remove residual debris (available from BioDesign of New York, Carmel, N.Y.).
Neuronal membranes containing active GABA receptors were collected via sucrose density centrifugation by the following method. About 8 mL of 35% sucrose buffer (35% sucrose (w/w) in 10 mM Tris, pH 7.5), were dispensed into each of six 38 mL ultracentrifuge tubes. These layers were overlaid with about 8 mL of 20% sucrose buffer (20% sucrose (w/w) in 10 mM Tris, pH 7.5), and finally overlaid with about 20 mL of filtered extract supernatant. The tubes were centrifuged at about 120,000×g for about 100 min at 4° C. After centrifugation, the 10% sucrose layer and most of the 20% sucrose layer were removed by aspiration. The membranes at the interface of the 20% sucrose and 35% sucrose layers were collected, pooled, diluted with 10% sucrose buffer, and centrifuged at about 120,000×g for about 40 min at 4° C. After centrifugation, the supernatant was discarded, and the pellets resuspended in about 6.5 mL of assay buffer (10 mM phosphate, 300 mM NaCl, pH 7.5) using a 10 mL Potter-Elvehjem tissue grinder with a Teflon® pestle. Protein concentration was determined by the Bio-Rad Protein Assay (available from Bio-Rad Laboratories, Hercules, Calif.) using bovine serum albumin as a standard. The membranes were aliquoted and stored in liquid nitrogen for up to 2 months before use.
Housefly neuronal membranes were prepared as described above from housefly heads. Test compounds were dissolved in dimethylsulfoxide (DMSO) at concentrations ranging from about 2 nM to about 100 mM. About 1 μL of a dissolved test compound was dispensed into a well of a 96-well polystyrene plate. About 100 μL of ice cold assay buffer (10 mM phosphate, 300 mM NaCl, pH 7.5) containing 5.2 nM 4′-Ethynyl-4-n-[2,3-^3H2]propylbicycloorthobenzoate (^3H-EBOB, 38 Ci/mmol, available from NEN Life Science Products, Boston, Mass.) was added to the well, followed by about 100 μL of ice cold assay buffer containing about 0.5-1.0 mg/mL housefly neuronal membranes. Control wells were prepared the same way except that the housefly neuronal membranes were omitted from the “negative” wells, and the test compounds were omitted from the “positive” wells. […]

Compound	LD50 (mM), Flies [1] [mM]	LD50 (mM), CO Fleas [2] [mM]	LD50 (mM), NC Fleas [3] [mM]	LC50 [2] [mM]	Compounds with the most activity (housefly 3H-EBOB binding) (Housefly GABA receptors)	IC50 (Housefly GABA receptors; displacement of 5.2 nM 3H-EBOB, housefly head neuronal membranes, about 45 min at about 24° C., read-out: IC50 (nM), Fly Head) [nM]
O=S1(=O)Cc2cn(-c3c(Cl)cc(C(F)(F)F)cc3Cl)nc2C1 [3″, 2-[2,6-Dichloro-4-(trifuoromethyl)phenyl]-4,6-dihydrothieno-[3,4-c]pyrazole-5,5-dione]	5	>100	>100			
FC(F)(F)c1cc(Cl)c(-n2cc3c(n2)CCCC3)c(Cl)c1 [Compound 13, 2-[2,6-Dichloro-4-(trifluoromethyl)phenyl]-4,5,6,7-tetrahydro-2H-indazole]	>100		20	37.5	most activity	
FC(F)(F)c1cc(Cl)c(-n2cc3c(n2)C2CCC3C2)c(Cl)c1 (centres unmarked) [Compound 35, 3,4-Diaza-4-[2,6-dichloro-4-(trifluoromethyl)phenyl]tricyclo-[5.2.1.0^2.6]deca-2,5-diene]	48		12	17	most activity	
CC1(C)CCc2nn(-c3c(Cl)cc(C(F)(F)F)cc3Cl)cc21 [Compound 38, 2-[2,6-Dichloro-4-(trifluoromethyl)phenyl]-4,4-dimethyl-2,4,5,6-tetrahydrocyclopenta[c]pyrazole]	>100		15	54	most activity	
CC1(O)c2cn(-c3c(Cl)cc(C(F)(F)F)cc3Cl)nc2C(F)C1F (centres unmarked) [Compound 88, 2-[2,6-Dichloro-4-(trifluoromethyl)phenyl]-5,6-difluoro-4-methyl-2,4,5,6-tetrahydrocyclopenta[c]pyrazol-4-ol]				5		350
